In publication PMC12527173, “Cytotoxic, anti-inflammatory, antioxidant, and anti-glyoxalase-I evaluation of chelating substances: In silico and in vitro study” (PLOS One, 2025) one finds IC50 data, which are given here for two molecules.

Broadly, the IC50 is the midpoint of a concentration-inhibition curve.

Series [1] addresses T1, human recombinant Glo-I enzyme (rhGlo-I) (Homo sapiens, UniProt Q04760).
T1 construct: N-terminal Met and 6-His tag (N); purchased R&D Systems; host or cells: E. coli
T1 sequence (Q04760 2-184 limits assumed): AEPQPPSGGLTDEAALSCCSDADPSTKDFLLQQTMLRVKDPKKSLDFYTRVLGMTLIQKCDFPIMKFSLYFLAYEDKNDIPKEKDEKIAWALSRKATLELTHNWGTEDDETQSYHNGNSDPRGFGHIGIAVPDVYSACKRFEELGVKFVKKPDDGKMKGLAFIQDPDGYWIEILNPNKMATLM
On the set-up: method as in PMID 34264188. The conditions noted are these: prior publication ref 87; read-out: IC50 against Glo-I; cited from earlier work.

Series [2] has as its system HeLa uterine cervix adenocarcinoma cell line. The experiment in a line: SRB cytotoxicity assay, HeLa. As to conditions: Homo sapiens, 72 h incubation, n = 12, read-out: Cytotoxicity (as of %Control) IC50 value Hela cervix malignancy. It is filed as cell-based. Here is the method:
(§1) The cancer cell lines were cultured in DMEM supplemented with 10% FBS (Bio Whittaker, Verviers, Belgium), HEPES Buffer (10 mM), gentamicin (50 µg/mL), L-glutamine (100 μg/mL), streptomycin ([…]), penicillin (100 µg/mL), and 4-(2-hydroxyethyl)-1-piperazineethanesulfonic acid (HEPES) Buffer (Sigma, St. Luis, MO, USA). The Sulforhodamine B used was obtained from Santa Cruz Biotechnology, Inc. in Texas, USA. […] Periodontal ligament fibroblasts (PDL) were utilized to assess specific cytotoxicity. Cancer cell lines that have survived offer several benefits. They provide a consistent and uninterrupted source of cells, so bypassing any ethical concerns related to the use of human tissue. Additionally, they are cost-effective. The cytotoxicity levels were assessed using the Sulforhodamine B (SRB) colorimetric assay, provided by Santa Cruz Biotechnology, Inc. in Texas, USA. The Spectro Scan 80D UV-VIS spectrophotometer, manufactured by Sedico Ltd. in Nicosia, Cyprus, was employed for this cytotoxicity screening. The cells were co-incubated with substances or a reference agent at various doses ranging from 5 to 200 μg/mL. […] The reduction in cell viability was analyzed by plotting Dose-response curves and expressing the data as a percentage of the control optical density. The IC50 values were obtained using regression analysis.

The nature of series [3]: DPPH free radical scavenger assay. As to conditions: DPPH radical scavenging; n = 12. The text has this:
This approach relies on the reduction of the radicals, which causes a change in colour from oxidized purple to reduced yellow. Primarily, Diphenyl-2-picryl-hydrazyl (DPPH) is reduced in a solution of methanol (MeOH) when a chemical that donates hydrogen is present. This reduction is due to the creation of the non-radical form DPPH-H. The alteration in colour can be precisely assessed by employing a spectrophotometer within the wavelength range of 515–520 nm. Unlike other assays for radical scavenging, the DPPH radical is stable and yields consistent spectroscopic data. A 0.2 mM DPPH solution was diluted with MeOH and then combined with treatment compounds and ascorbic acid in a 1:1 concentration ratio using a 96-well plate. […] The solution was then incubated for one hour, isolated from light. Subsequently, the alteration in absorbance at a wavelength of 517 nm was quantified using a microplate reader manufactured by Bio-Tek Instrument in the United States. Ascorbic acid served as a strong and traditional benchmark for comparing the effectiveness of radical scavenging agents. The DPPH radical scavenging activity inhibition was calculated using the following equation, where A denotes photometric absorbance: The formula to calculate the percentage difference between a control and a sample is: (A control – A sample)/ A control x 100% [71, 72].
For orientation: The DPPH test is a chemical assay of radical scavenging.

Series [4] concerns SW480 colorectal cancer cell line. The experiment in a line: SRB cytotoxicity assay, SW480. The class given is cell-based. The conditions noted are these: Homo sapiens, 72 h incubation, n = 12, read-out: Cytotoxicity (as of %Control) IC50 value SW480. As to the method: as §1
(In general: The SRB assay estimates cell density from bound dye.)

The test system of series [5] is SW620 colorectal cancer cell line. The experiment in a line: SRB cytotoxicity assay, SW620. The class given is cell-based. The conditions noted are these: Homo sapiens, SW-620, 72 h incubation, n = 12, read-out: Cytotoxicity (as of %Control) IC50 value SW620. Here is the method: as §1
Series [6] has as its system T47D breast cancer cell line. Description: SRB cytotoxicity assay, T47D. It is filed as cell-based. The conditions noted are these: Homo sapiens, 72 h incubation, n = 12, read-out: Cytotoxicity (as of %Control) IC50 value T47D mammary malignancy. Here is the method: as §1
Series [7] deals with HCT116 colorectal cancer cell line. Description: SRB cytotoxicity assay, HCT116. As to conditions: Homo sapiens, HCT-116, 72 h incubation, n = 12, read-out: Cytotoxicity (as of %Control) IC50 value HCT116. The class given is cell-based. Here is the method: as §1
Series [8] is described as follows: SRB cytotoxicity assay, normal PDL fibroblasts. It is filed as cell-based. The conditions noted are these: normal periodontal ligament (PDL) fibroblasts, 72 h incubation, 0.1–200 µM range, read-out: Cytotoxicity (as of %Control) IC50 value PDL fibroblasts. Here is the method:
as §1

Series [9] concerns A375 human skin cancer cell line. The experiment in a line: SRB cytotoxicity assay, A375. The class given is cell-based. The conditions noted are these: A-375, 72 h incubation, n = 12, read-out: Cytotoxicity (as of %Control) IC50 value A375 skin melanoma. Here is the method: as §1
The test system of series [10] is LPS-primed RAW 264.7 murine macrophages (nitrite / iNOS). Description: Anti-inflammatory (nitrite) determination in LPS-primed macrophages. The conditions noted are these: Mus musculus. The class given is cell-based. Here is the method:
The RAW 264.7 mouse macrophage cell line (ATCC® TIB-71) was cultivated in high glucose DMEM with 10% foetal bovine serum (FBS), 100 U/mL penicillin, 100 μg/mL streptomycin, and 100 μg/mL L-glutamate. The cells were incubated at 37°C in a humidified environment with 95% air and 5% CO2. Confluent macrophages (2 x 10^5/well) were cultured with lipopolysaccharide (LPS; 20 μg/mL; Sigma, St. Luis, MO, USA) and indomethacin (25–200 μg/mL) as the positive control, along with various concentrations (5–200 μg/mL) of treatment compounds. The cells were incubated for 24 hours. 100 μL of Griess reagent were combined with 100 μL portions of cell culture medium and left to incubate at room temperature for 10 minutes. The absorbance at a wavelength of 550 nm was measured using a microplate reader, namely the Spectro Scan 80D UV-VIS spectrophotometer manufactured by Sedico Ltd. in Nicosia, Cyprus. The nitrite concentration was assessed by comparing it to a standard curve of sodium nitrite. A cytotoxicity protocol using SRB was conducted to assess the impact of the test substances under study on RAW 264.7 viability.

Series [11] deals with Breast cancer cell line MCF7. Description: SRB cytotoxicity assay, MCF7. The conditions noted are these: Homo sapiens, 72 h incubation, n = 12, read-out: Cytotoxicity (as of %Control) IC50 value MCF7 mammary malignancy. The class given is cell-based. As to the method: as §1
The test system of series [12] is CACO2 colorectal cancer cell line. The experiment in a line: SRB cytotoxicity assay, CACO2. It is filed as cell-based. As to conditions: Homo sapiens, Caco-2, 72 h incubation, n = 12, read-out: Cytotoxicity (as of %Control) IC50 value CACO2. Here is the method:
as §1

Series [13] relates to HT-29 colorectal cancer cell line. The experiment in a line: SRB cytotoxicity assay, HT29. It is filed as cell-based. As to conditions: Homo sapiens, 72 h incubation, n = 12, read-out: Cytotoxicity (as of %Control) IC50 value HT29. Here is the method: as §1
Series [14] concerns PANC1 pancreatic cell line. The experiment in a line: SRB cytotoxicity assay, PANC1. It is filed as cell-based. As to conditions: Homo sapiens, PANC-1, 72 h incubation, n = 12, read-out: Cytotoxicity (as of %Control) IC50 value PANC1. As to the method:
as §1

The subject of series [15] is Human PC3 prostate cancer cell line. Description: SRB cytotoxicity assay, PC3. The class given is cell-based. As to conditions: 72 h incubation, n = 12, read-out: Cytotoxicity (as of %Control) IC50 value PC3 prostate malignancy. As to the method: as §1
The test system of series [16] is A549 lung cancer cell line. Description: SRB cytotoxicity assay, A549. The class given is cell-based. As to conditions: Homo sapiens, 72 h incubation, n = 12, read-out: Cytotoxicity (as of %Control) IC50 value A549 lung malignancy. Here is the method:
as §1

Where two headings read alike, the source gives them in different places.

Regarding `C[C@H](Cc1ccc(O)c(O)c1)[C@@H](C)Cc1ccc(O)c(O)c1` [4,4’-((2R,3S)-2,3-dimethylbutane-1,4-diyl)bis(benzene-1,2-diol)], the concentration for half-maximal inhibition (IC50) in [1] is 0.0365 µM.

In the case of `O=c1c(O)c(-c2cc(O)c(O)c(O)c2)oc2cc(O)cc(O)c12` [Myricetin, reference compound], the IC50 came to 35.8 ± 4.4 µM in series [2]; 70.7 ± 11.6 µM in [3]; 88.9 ± 14.1 µM in series [4]; 42.8 ± 0.78 µM in series [5]; 29.8 ± 2.6 µM in series [6]; 44.7 ± 2.14 µM in series [7]. For the same molecule, the 50% inhibitory concentration (IC50) in series [9] is 51.7 ± 4.1 µM; in series [10] (RAW264.7, 24 h, read-out: iNOS- IC50 value) it was 0.07 ± 0.01 µM; in series [10] (RAW264.7, read-out: IC50, ability to reduce inflammation) it was 0.05 µM; in series [11], 73 ± 0.78 µM; in series [12] it was 106.5 ± 0.6 µM; in series [13], 32.6 ± 1.06 µM. The IC50 in series [14] stood at 198 ± 43 µM; in series [15], 65.4 ± 1.84 µM; in series [16] it was 27.5 ± 4.47 µM. For the same molecule, the half-maximal inhibitory concentration (IC50) at 72 h in series [8] was over 200 µM.
